{"source": "ChEMBL document CHEMBL1909046", "about": "“DrugMatrix in vitro pharmacology data”", "data": [{"system": "not listed separately", "test": "DRUGMATRIX: Atrial Natriuretic Factor (ANF) radioligand binding (ligand: [125I] ANF (rat))", "format": "cell membranes, Cavia porcellus, Dunkin-Hartley, Adrenal gland, Membrane", "settings": "Not Active = under 50% inhibition at 10 µM", "values": [{"smiles": "NS(=O)(=O)c1cc(C2(O)NC(=O)c3ccccc32)ccc1Cl", "note": "(stereo not given) [CHLORTHALIDONE]", "IC50": "Not Active", "Ki": "Not Active"}, {"smiles": "O=C(O)CC(O)(CC(=O)O)C(=O)O", "note": "[CITRIC ACID]", "IC50": "Not Active", "Ki": "Not Active"}, {"smiles": "CN1CCN(C(c2ccccc2)c2ccccc2)CC1", "note": "[CYCLIZINE]", "IC50": "Not Active", "Ki": "Not Active"}, {"smiles": "CN1C[C@@H]2C[C@H]1CN2c1cc2c(cc1F)c(=O)c(C(=O)O)cn2C1CC1", "note": "[DANOFLOXACIN]", "IC50": "Not Active", "Ki": "Not Active"}, {"smiles": "COc1cccc2c1C(=O)c1c(O)c3c(c(O)c1C2=O)C[C@@](O)(C(C)=O)C[C@@H]3O[C@H]1C[C@H](N)[C@H](O)[C@H](C)O1", "note": "[DAUNORUBICIN]", "IC50": "Not Active", "Ki": "Not Active"}]}, {"biological_target": "Prostaglandin G/H synthase 1 (Homo sapiens, UniProt P23219)", "sequence (P23219 whole entry)": "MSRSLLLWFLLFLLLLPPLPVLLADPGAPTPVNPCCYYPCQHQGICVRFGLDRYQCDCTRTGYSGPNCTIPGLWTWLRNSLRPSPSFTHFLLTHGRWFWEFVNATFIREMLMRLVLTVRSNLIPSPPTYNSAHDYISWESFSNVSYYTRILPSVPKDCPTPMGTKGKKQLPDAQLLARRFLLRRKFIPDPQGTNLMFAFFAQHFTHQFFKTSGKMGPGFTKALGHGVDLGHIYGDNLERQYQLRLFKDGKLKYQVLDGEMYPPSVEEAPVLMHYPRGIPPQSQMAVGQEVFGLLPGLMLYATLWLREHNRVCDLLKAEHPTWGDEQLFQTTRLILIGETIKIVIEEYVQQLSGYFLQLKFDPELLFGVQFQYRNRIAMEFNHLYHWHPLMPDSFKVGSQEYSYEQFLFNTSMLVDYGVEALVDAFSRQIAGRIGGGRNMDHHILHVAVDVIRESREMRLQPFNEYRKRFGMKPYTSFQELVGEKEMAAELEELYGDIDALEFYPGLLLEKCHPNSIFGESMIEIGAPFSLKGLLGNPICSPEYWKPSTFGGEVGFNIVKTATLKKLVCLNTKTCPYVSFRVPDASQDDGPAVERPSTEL", "test": "biochemical", "format": "tissue-based, Platelet", "settings": "platelet", "values": [{"smiles": "NS(=O)(=O)c1cc(C2(O)NC(=O)c3ccccc32)ccc1Cl", "note": "(stereo not given) [CHLORTHALIDONE]", "IC50": "Not Active"}, {"smiles": "O=C(O)CC(O)(CC(=O)O)C(=O)O", "note": "[CITRIC ACID]", "IC50": "Not Active"}, {"smiles": "CN1CCN(C(c2ccccc2)c2ccccc2)CC1", "note": "[CYCLIZINE]", "IC50": "Not Active"}, {"smiles": "CN1C[C@@H]2C[C@H]1CN2c1cc2c(cc1F)c(=O)c(C(=O)O)cn2C1CC1", "note": "[DANOFLOXACIN]", "IC50": "Not Active"}, {"smiles": "COc1cccc2c1C(=O)c1c(O)c3c(c(O)c1C2=O)C[C@@](O)(C(C)=O)C[C@@H]3O[C@H]1C[C@H](N)[C@H](O)[C@H](C)O1", "note": "[DAUNORUBICIN]", "IC50": "Not Active"}]}, {"system": "not listed separately", "test": "DRUGMATRIX: GABAA, Flunitrazepam, Central radioligand binding (ligand: [3H] Flunitrazepam)", "format": "cell membranes, Rattus norvegicus, Wistar, Brain, Membrane", "settings": "Not Active = under 50% inhibition at 10 µM", "values": [{"smiles": "NS(=O)(=O)c1cc(C2(O)NC(=O)c3ccccc32)ccc1Cl", "note": "(stereo not given) [CHLORTHALIDONE]", "IC50": "Not Active", "Ki": "Not Active"}, {"smiles": "O=C(O)CC(O)(CC(=O)O)C(=O)O", "note": "[CITRIC ACID]", "IC50": "Not Active", "Ki": "Not Active"}, {"smiles": "CN1CCN(C(c2ccccc2)c2ccccc2)CC1", "note": "[CYCLIZINE]", "IC50": "Not Active", "Ki": "Not Active"}, {"smiles": "CN1C[C@@H]2C[C@H]1CN2c1cc2c(cc1F)c(=O)c(C(=O)O)cn2C1CC1", "note": "[DANOFLOXACIN]", "IC50": "Not Active", "Ki": "Not Active"}, {"smiles": "COc1cccc2c1C(=O)c1c(O)c3c(c(O)c1C2=O)C[C@@](O)(C(C)=O)C[C@@H]3O[C@H]1C[C@H](N)[C@H](O)[C@H](C)O1", "note": "[DAUNORUBICIN]", "IC50": "Not Active", "Ki": "Not Active"}]}, {"biological_target": "Glycine receptor (Rattus norvegicus, UniProt P22771+P24524+P07727+P20781)", "test": "not given", "format": "cell membranes, Wistar, Spinal cord, Membrane", "settings": "not given", "values": [{"smiles": "NS(=O)(=O)c1cc(C2(O)NC(=O)c3ccccc32)ccc1Cl", "note": "(stereo not given) [CHLORTHALIDONE]", "IC50": "Not Active"}, {"smiles": "O=C(O)CC(O)(CC(=O)O)C(=O)O", "note": "[CITRIC ACID]", "IC50": "Not Active"}, {"smiles": "CN1CCN(C(c2ccccc2)c2ccccc2)CC1", "note": "[CYCLIZINE]", "IC50": "Not Active"}, {"smiles": "CN1C[C@@H]2C[C@H]1CN2c1cc2c(cc1F)c(=O)c(C(=O)O)cn2C1CC1", "note": "[DANOFLOXACIN]", "IC50": "Not Active"}, {"smiles": "COc1cccc2c1C(=O)c1c(O)c3c(c(O)c1C2=O)C[C@@](O)(C(C)=O)C[C@@H]3O[C@H]1C[C@H](N)[C@H](O)[C@H](C)O1", "note": "[DAUNORUBICIN]", "IC50": "Not Active"}]}, {"biological_target": "T1, Cysteinyl leukotriene receptor 1 (Homo sapiens, UniProt Q9Y271)", "T1 sequence (Q9Y271 whole entry)": "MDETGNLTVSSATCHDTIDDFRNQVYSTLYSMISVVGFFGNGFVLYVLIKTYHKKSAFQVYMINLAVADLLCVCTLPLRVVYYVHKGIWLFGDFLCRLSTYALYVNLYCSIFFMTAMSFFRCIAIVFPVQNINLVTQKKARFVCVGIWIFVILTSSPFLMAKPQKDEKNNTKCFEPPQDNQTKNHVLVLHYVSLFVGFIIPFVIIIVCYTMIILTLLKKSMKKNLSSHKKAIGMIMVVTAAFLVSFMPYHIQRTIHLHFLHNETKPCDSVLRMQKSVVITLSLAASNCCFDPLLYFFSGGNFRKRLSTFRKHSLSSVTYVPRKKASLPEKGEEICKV", "test": "not given", "format": "cell membranes, Membrane", "settings": "cho-k1", "values": [{"smiles": "NS(=O)(=O)c1cc(C2(O)NC(=O)c3ccccc32)ccc1Cl", "note": "(stereo not given) [CHLORTHALIDONE]", "IC50": "Not Active"}, {"smiles": "O=C(O)CC(O)(CC(=O)O)C(=O)O", "note": "[CITRIC ACID]", "IC50": "Not Active"}, {"smiles": "CN1CCN(C(c2ccccc2)c2ccccc2)CC1", "note": "[CYCLIZINE]", "IC50": "Not Active"}, {"smiles": "CN1C[C@@H]2C[C@H]1CN2c1cc2c(cc1F)c(=O)c(C(=O)O)cn2C1CC1", "note": "[DANOFLOXACIN]", "IC50": "Not Active"}, {"smiles": "COc1cccc2c1C(=O)c1c(O)c3c(c(O)c1C2=O)C[C@@](O)(C(C)=O)C[C@@H]3O[C@H]1C[C@H](N)[C@H](O)[C@H](C)O1", "note": "[DAUNORUBICIN]", "IC50": "Not Active"}]}, {"biological_target": "cGMP-specific 3',5'-cyclic phosphodiesterase (Homo sapiens, UniProt O76074)", "test": "DRUGMATRIX: Phosphodiesterase PDE5 enzyme inhibition (substrate: [3H]cGMP + cGMP)", "format": "tissue-based, Platelet", "settings": "platelet; Not Active = under 50% inhibition at 10 µM", "values": [{"smiles": "NS(=O)(=O)c1cc(C2(O)NC(=O)c3ccccc32)ccc1Cl", "note": "(stereo not given) [CHLORTHALIDONE]", "IC50": "Not Active"}, {"smiles": "O=C(O)CC(O)(CC(=O)O)C(=O)O", "note": "[CITRIC ACID]", "IC50": "Not Active"}, {"smiles": "CN1CCN(C(c2ccccc2)c2ccccc2)CC1", "note": "[CYCLIZINE]", "IC50": "Not Active"}, {"smiles": "CN1C[C@@H]2C[C@H]1CN2c1cc2c(cc1F)c(=O)c(C(=O)O)cn2C1CC1", "note": "[DANOFLOXACIN]", "IC50": "Not Active"}, {"smiles": "COc1cccc2c1C(=O)c1c(O)c3c(c(O)c1C2=O)C[C@@](O)(C(C)=O)C[C@@H]3O[C@H]1C[C@H](N)[C@H](O)[C@H](C)O1", "note": "[DAUNORUBICIN]", "IC50": "Not Active"}]}, {"biological_target": "Cytochrome P450 2E1 (Homo sapiens, UniProt P05181)", "sequence (P05181 whole entry)": "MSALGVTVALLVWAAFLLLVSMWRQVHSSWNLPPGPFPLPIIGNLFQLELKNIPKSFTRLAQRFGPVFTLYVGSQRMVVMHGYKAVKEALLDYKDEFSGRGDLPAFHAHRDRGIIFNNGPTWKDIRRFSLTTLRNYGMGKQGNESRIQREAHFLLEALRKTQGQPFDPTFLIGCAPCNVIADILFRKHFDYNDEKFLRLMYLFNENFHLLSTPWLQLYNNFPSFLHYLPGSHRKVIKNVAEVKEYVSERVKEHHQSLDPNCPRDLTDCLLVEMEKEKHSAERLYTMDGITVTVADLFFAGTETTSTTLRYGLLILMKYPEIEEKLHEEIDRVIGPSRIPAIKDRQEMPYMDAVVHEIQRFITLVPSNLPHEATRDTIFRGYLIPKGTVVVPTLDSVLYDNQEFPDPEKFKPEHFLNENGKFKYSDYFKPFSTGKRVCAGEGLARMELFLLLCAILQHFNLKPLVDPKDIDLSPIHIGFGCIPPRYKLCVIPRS", "test": "not given", "settings": "bti-tn-5b1-4", "values": [{"smiles": "NS(=O)(=O)c1cc(C2(O)NC(=O)c3ccccc32)ccc1Cl", "note": "(stereo not given) [CHLORTHALIDONE]", "IC50": "Not Active", "Ki": "Not Active"}, {"smiles": "O=C(O)CC(O)(CC(=O)O)C(=O)O", "note": "[CITRIC ACID]", "IC50": "Not Active", "Ki": "Not Active"}, {"smiles": "CN1CCN(C(c2ccccc2)c2ccccc2)CC1", "note": "[CYCLIZINE]", "IC50": "Not Active", "Ki": "Not Active"}, {"smiles": "CN1C[C@@H]2C[C@H]1CN2c1cc2c(cc1F)c(=O)c(C(=O)O)cn2C1CC1", "note": "[DANOFLOXACIN]", "IC50": "Not Active", "Ki": "Not Active"}, {"smiles": "COc1cccc2c1C(=O)c1c(O)c3c(c(O)c1C2=O)C[C@@](O)(C(C)=O)C[C@@H]3O[C@H]1C[C@H](N)[C@H](O)[C@H](C)O1", "note": "[DAUNORUBICIN]", "IC50": "Not Active", "Ki": "Not Active"}]}, {"biological_target": "T2, Glucocorticoid receptor (Homo sapiens, UniProt P04150)", "T2 sequence (P04150 whole entry)": "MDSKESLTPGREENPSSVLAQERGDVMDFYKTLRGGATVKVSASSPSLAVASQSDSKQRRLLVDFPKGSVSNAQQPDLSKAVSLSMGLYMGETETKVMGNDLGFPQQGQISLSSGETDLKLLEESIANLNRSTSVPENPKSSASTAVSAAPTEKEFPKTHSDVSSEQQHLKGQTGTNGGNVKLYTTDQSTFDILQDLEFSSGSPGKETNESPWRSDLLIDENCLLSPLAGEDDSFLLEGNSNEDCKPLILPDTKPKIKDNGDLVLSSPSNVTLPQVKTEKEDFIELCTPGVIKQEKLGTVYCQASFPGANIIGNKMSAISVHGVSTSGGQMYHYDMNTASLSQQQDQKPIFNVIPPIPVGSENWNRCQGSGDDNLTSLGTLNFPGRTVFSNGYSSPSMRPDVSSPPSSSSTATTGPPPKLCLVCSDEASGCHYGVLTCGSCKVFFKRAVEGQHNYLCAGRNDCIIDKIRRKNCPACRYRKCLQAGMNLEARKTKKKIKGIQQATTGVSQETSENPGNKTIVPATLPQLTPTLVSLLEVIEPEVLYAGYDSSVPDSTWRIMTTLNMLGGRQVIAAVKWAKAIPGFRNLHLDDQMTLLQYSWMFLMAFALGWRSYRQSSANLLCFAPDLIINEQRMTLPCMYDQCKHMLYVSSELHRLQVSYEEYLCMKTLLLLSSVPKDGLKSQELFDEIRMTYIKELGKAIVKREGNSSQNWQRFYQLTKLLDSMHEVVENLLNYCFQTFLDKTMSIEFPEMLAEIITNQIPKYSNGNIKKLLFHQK", "test": "not given", "settings": "hela s3", "values": [{"smiles": "NS(=O)(=O)c1cc(C2(O)NC(=O)c3ccccc32)ccc1Cl", "note": "(stereo not given) [CHLORTHALIDONE]", "IC50": "Not Active"}, {"smiles": "O=C(O)CC(O)(CC(=O)O)C(=O)O", "note": "[CITRIC ACID]", "IC50": "Not Active"}, {"smiles": "CN1CCN(C(c2ccccc2)c2ccccc2)CC1", "note": "[CYCLIZINE]", "IC50": "Not Active"}, {"smiles": "CN1C[C@@H]2C[C@H]1CN2c1cc2c(cc1F)c(=O)c(C(=O)O)cn2C1CC1", "note": "[DANOFLOXACIN]", "IC50": "Not Active"}, {"smiles": "COc1cccc2c1C(=O)c1c(O)c3c(c(O)c1C2=O)C[C@@](O)(C(C)=O)C[C@@H]3O[C@H]1C[C@H](N)[C@H](O)[C@H](C)O1", "note": "[DAUNORUBICIN]", "IC50": "Not Active"}]}]}
